Like-named read-outs stand apart in the source and are kept apart here.
What was measured:
MOLM14 cells = assay: clonogenicity (colony formation in semi-solid medium); assay type: cell-based, human; conditions: 24h pretreatment
Protocol: (§1) Following subtraction of background fluorescence from all wells, fluorescence of drug-treated cells was normalized to that of vehicle (<0.5% DMSO)-treated cells to determine the effect of each drug concentration on viability. Each cell line was tested in triplicate and in at least three independent experiments. IC50 (concentration that inhibits cell growth by 50%) values were calculated using CompuSyn software (ComboSyn, Paramus, NJ). […] In addition several cell lines were initially cultured and tested in alternative media (Supplementary Table S2). […] Colony counts were normalized to vehicle-treated controls (100%). Three independent experiments were performed.
(§2) After 7-10d (leukemia cells) or 10-14d (HSPCs), colonies (≥20 cells) were enumerated.

MV-4-11 cells = assay: as above; assay type: cell-based, human; conditions: 24h pretreatment
Protocol: as §1, §2

ML-2 cells = assay: alamarBlue cytotoxicity assay, 48h; assay type: cell-based, human; conditions: ML-2 (AML), RPMI + 10% FBS
Protocol: as §1
(§3) In most experiments, cytotoxicity was assessed using alamarBlue assays (Life Technologies, Grand Island, NY). In experiments using NAC and DFO, which can interfere with alamarBlue assay performance, Trypan Blue dye exclusion was used instead. […]
(§4) experiments performed in triplicate. […] Age refers to age […]
(§5) at the time of leukemia diagnosis of the patient from whom the cell line was derived. (–) Indicates information unavailable.
(§6) *Cell lines with FLT3/ITD mutations.
(§7) *The MV-4–11 cell line was derived from a patient with a biphenotypic B-myelomonocytic leukemia; K562 was derived […]
(§8) 1A. p53 status was obtained from http://cancer.sanger.ac.uk/cell_lines/cbrowse/all and http://p53.free.fr/Database/Cancer_ cell_lines/Leukemia_cancer. html. WT: wild type. Mut: mutant. SM: single mutation. DM: double mutation. MM: multiple mutations. Fs: Frameshift mutation. Null: protein expression undetectable.

MOLT-16 cells = assay: alamarBlue cytotoxicity assay, 48h; assay type: cell-based, human; conditions: MOLT-16 (T-ALL), RPMI + 10% FBS
Protocol: as §1, §3, §4, §5, §6, §7, §8

Kasumi-2 cells = assay: alamarBlue cytotoxicity assay, 48h; assay type: cell-based, human; conditions: Kasumi-2 (B-ALL), RPMI + 10% FBS
Protocol: as §1, §3, §4, §5, §6, §7, §8

CCRF-CEM cells = assay: alamarBlue cytotoxicity assay, 48h; assay type: cell-based, human; conditions: CCRF-CEM (T-ALL), RPMI + 10% FBS
Protocol: as §1, §3, §4, §5, §6, §7, §8

HL-60 cells = assay: alamarBlue cytotoxicity assay, 48h; assay type: cell-based, human; conditions: HL-60 (AML), RPMI + 10% FBS
Protocol: as §1, §3, §4, §5, §6, §7, §8

U937 cells = assay: alamarBlue cytotoxicity assay, 48h; assay type: cell-based, human; conditions: RPMI + 10% FBS
Protocol: as §1, §3, §4, §5, §6, §7, §8

THP-1 cells = assay: alamarBlue cytotoxicity assay, 48h; assay type: cell-based, human
Protocol: as §1, §3, §4, §5, §6, §7, §8

REH cells = assay: alamarBlue cytotoxicity assay, 48h; assay type: cell-based, human
Protocol: as §1, §3, §4, §5, §6, §7, §8

K562 cells = assay: alamarBlue cytotoxicity assay, 48h; assay type: cell-based, human; conditions: K562 (CML), RPMI + 10% FBS
Protocol: as §1, §3, §4, §5, §6, §7, §8

KG-1a cells = assay: alamarBlue cytotoxicity assay, 48h; assay type: cell-based, human; conditions: KG-1a (AML), RPMI + 10% FBS
Protocol: as §1, §3, §4, §5, §6, §7, §8

MOLT-3 cells = assay: alamarBlue cytotoxicity assay, 48h; assay type: cell-based, human; conditions: MOLT-3 (T-ALL), RPMI + 10% FBS
Protocol: as §1, §3, §4, §5, §6, §7, §8

OCI-AML3 cells = assay: alamarBlue cytotoxicity assay, 48h; assay type: cell-based, human
Protocol: as §1, §3, §4, §5, §6, §7, §8

Jurkat cells = assay: alamarBlue cytotoxicity assay, 48h; assay type: cell-based, human; conditions: Jurkat (T-ALL), RPMI + 10% FBS
Protocol: as §1, §3, §4, §5, §6, §7, §8

NB-4 cells = assay: alamarBlue cytotoxicity assay, 48h; assay type: cell-based, human; conditions: NB-4 (AML), RPMI + 10% FBS
Protocol: as §1, §3, §4, §5, §6, §7, §8

normal human CD34+ HSPCs = assay: clonogenicity of normal HSPCs; assay type: cell-based
Protocol: Cryopreserved human CD34^+ HSPCs from normal adult donors (Cellular Therapy and Cell Processing Facility, Fred Hutchinson Cancer Center, Seattle, WA) were thawed and cultured for 24h in StemSpanSFEM medium (Stemcell Technologies, Vancouver, BC, Canada) containing 100 ng/ml recombinant human (rh) stem cell factor, 20 ng/ml rh thrombopoietin, and 100 ng/ml rh FLT3 ligand (PeproTech, Rocky Hill, NJ), in the presence of the indicated drug concentrations prior to plating for clonogenic assays.
Cells pretreated with ART-838, AS, or vehicle for 24h were diluted and plated in MethoCult medium (Stemcell Technologies). After 7-10d (leukemia cells) or 10-14d (HSPCs), colonies (≥20 cells) were enumerated.
Supplementary Figure S5: Effects of ART-838 and AS on clonogenicity of normal human CD34+ HSPCs. Normal human CD34+ HSPCs were pretreated with the indicated concentrations of ART-838, AS, or vehicle (0.5% DMSO) for 24 h then cultured in semi-solid medium for 10–14d before colonies were enumerated. A. Total hematopoietic colony counts, normalized to vehicle-treated controls (100%) and B. counts of types of colonies, i.e. erythroid (E); granulocyte/macrophage (sum of GM, G and M, combined) and multilineage progenitors (GEMM). Three independent experiments were performed. Data are represented as mean +/– SEM.
Supplementary Figure S6: ART-838 and AS concentration-response curves for KOPN8 and MOLM14. […]

MOLM14 xenograft = assay: subcutaneous MOLM14 AML xenograft; conditions: for average tumor mass less than vehicle-treated tumors: day 21
Protocol: CBCs were performed on day 23 (Supplementary Figure S8). Mice were euthanized when tumors reached an estimated 2000mg. […] B. Percent of Day 0 body weight. […] C. Kaplan-Meier survival analysis. […] D. Percent of Day 0 body weight.

With C[C@H]1[C@H](OC(=O)CCC(=O)O)O[C@@H]2O[C@@]3(C)CC[C@H]4[C@H](C)CC[C@@H]1[C@@]24OO3 [AS, artesunate] the clonogenicity (MOLM14 cells; AS 10 μM) was “substantially reduced”, the clonogenicity (MV-4-11 cells; AS 10 μM) was “substantially reduced” and the IC50 (ML-2 cells; Homo sapiens) was 1460 ± 210 nM. For the same molecule, the IC50 (MOLT-16 cells; Homo sapiens) was 1630 ± 70 nM, the IC50 (Kasumi-2 cells; Homo sapiens) was 6650 ± 340 nM and the IC50 (CCRF-CEM cells; Homo sapiens) was 7340 ± 1240 nM. The IC50 (HL-60 cells; Homo sapiens) was 3000 ± 600 nM, the IC50 (U937 cells; Homo sapiens, U-937, U937 (AML)) was 1060 ± 170 nM and the IC50 (THP-1 cells; Homo sapiens, THP-1 (AML), 48h, RPMI + 10% FBS, read-out: IC50) was 2200 ± 480 nM. For the same molecule, the IC50 (THP-1 cells; Homo sapiens, THP-1, original medium RPMI + 10% FBS + 50 μM β-mercaptoethanol, read-out: IC50 in original medium) was 11100 nM, the IC50 (REH cells; Homo sapiens, read-out: IC50 in RPMI+10% FBS, REH, Table S2) was 10300 nM and the IC50 (REH cells; Homo sapiens, REH (B-ALL), 48h, RPMI + 10% FBS, read-out: IC50) was 10300 ± 3000 nM. For the same molecule, the IC50 (REH cells; Homo sapiens, REH, original medium RPMI + 20% FBS, read-out: IC50 in original medium) was 15400 nM, the IC50 (K562 cells; Homo sapiens) was 4750 ± 850 nM and the IC50 (KG-1a cells; Homo sapiens) was 6260 ± 300 nM. For the same molecule, the IC50 (MOLT-3 cells; Homo sapiens) was 4100 ± 620 nM, the IC50 (OCI-AML3 cells; Homo sapiens, OCI-AML-3, OCI-AML3 (AML), 48h, RPMI + 10% FBS, read-out: IC50) was 1810 ± 200 nM and the IC50 (OCI-AML3 cells; Homo sapiens, OCI-AML-3, OCI-AML3, original medium RPMI + 20% FBS, read-out: IC50 in original medium) was 3560 nM. The IC50 (Jurkat cells; Homo sapiens) was 4330 ± 1180 nM, the IC50 (NB-4 cells; Homo sapiens) was 947 ± 141 nM and the “reduction of normal erythroid and monogranulocytic colony-forming cells” value (normal human CD34+ HSPCs; 10 μM AS, 24h pretreatment) was < 25%. The “average tumor mass less than vehicle-treated tumors” value (MOLM14 xenograft; two 5-day cycles AS 200 mg/kg/d oral gavage) was 44%.
C[C@@H]1CCC2[C@@H](C)[C@@H](CC(COP(=O)(Oc3ccccc3)Oc3ccccc3)C[C@H]3O[C@@H]4O[C@@]5(C)CCC6[C@H](C)CCC([C@H]3C)[C@]64OO5)O[C@@H]3O[C@@]4(C)CCC1[C@@]23OO4 (stereo partly drawn) [ART-838, artemisinin-derived trioxane diphenylphosphate dimer 838] was tested, and the clonogenicity (MOLM14 cells; ART-838 0.1 μM) was “completely abolished”, the clonogenicity (MV-4-11 cells; ART-838 0.1 μM) was “completely abolished” and the IC50 (ML-2 cells) was 21 ± 11 nM. The IC50 (MOLT-16 cells) was 10 ± 2 nM, the IC50 (Kasumi-2 cells) was 26 ± 4 nM and the IC50 (CCRF-CEM cells) was 483 ± 195 nM. For the same molecule, the IC50 (HL-60 cells) was 107 ± 45 nM, the IC50 (U937 cells; U937 (AML)) was 10 ± 1 nM and the IC50 (THP-1 cells; THP-1 (AML), 48h, RPMI + 10% FBS, read-out: IC50) was 38 ± 9 nM. For the same molecule, the “-Fold Difference in IC50 between media” value (THP-1 cells; THP-1, RPMI + 10% FBS + 50 μM β-mercaptoethanol vs RPMI+10% FBS) was 2.5, the IC50 (THP-1 cells; THP-1, original medium RPMI + 10% FBS + 50 μM β-mercaptoethanol, read-out: IC50 in original medium) was 95 nM and the IC50 (REH cells; REH (B-ALL), 48h, RPMI + 10% FBS, read-out: IC50) was 95 ± 40 nM. The “-Fold Difference in IC50 between media” value (REH cells; REH, RPMI + 20% FBS vs RPMI+10% FBS) was 1.3, the IC50 (REH cells; REH, original medium RPMI + 20% FBS, read-out: IC50 in original medium) was 123 nM and the IC50 (REH cells; read-out: IC50 in RPMI+10% FBS, REH, Table S2) was 95 nM. It also gave an IC50 (K562 cells) of 94 ± 12 nM, an IC50 (KG-1a cells) of 547 ± 147 nM and an IC50 (MOLT-3 cells) of 97 ± 58 nM. The IC50 (OCI-AML3 cells; OCI-AML3 (AML), 48h, RPMI + 10% FBS, read-out: IC50) was 168 ± 41 nM, the “-Fold Difference in IC50 between media” value (OCI-AML3 cells; OCI-AML3, RPMI + 20% FBS vs RPMI+10% FBS) was 1.7 and the IC50 (OCI-AML3 cells; OCI-AML3, original medium RPMI + 20% FBS, read-out: IC50 in original medium) was 287 nM. The IC50 (Jurkat cells) was 255 ± 155 nM, the IC50 (NB-4 cells) was 26 ± 7 nM and the “reduction of normal erythroid and monogranulocytic colony-forming cells” value (normal human CD34+ HSPCs; 1 μM ART-838, 24h pretreatment) was < 25%. The “average tumor mass less than vehicle-treated tumors” value (MOLM14 xenograft; two 5-day cycles ART-838 50 mg/kg/d oral gavage) was 83% and the “complete and differential blood cell counts” value (MOLM14 xenograft; tumor-bearing NSG mice, day 23, after two 5-day cycles ART-838 50 mg/kg/d) was “within the normal range”.

From PMC4872784 (Oncotarget, 2016)
